This note sets out measurements from article PMC11792066, “Development of benzofuran-derived sulfamates as dual aromatase-steroid sulfatase inhibitors (DASIs): design, synthesis and biological evaluation” (RSC Medicinal Chemistry, 2025).

Values joined by “and” are separate entries in the source; they are usually repeats but may differ in a detail not shown here. Equal entries are not always repeated. Where two headings read alike, the source gives them in different places.

The target of one assay is T1, aromatase (CYP19A1) (Homo sapiens, UniProt P11511).
T1 construct: host or cells: JEG-3 cells
T1 sequence (P11511 1-503): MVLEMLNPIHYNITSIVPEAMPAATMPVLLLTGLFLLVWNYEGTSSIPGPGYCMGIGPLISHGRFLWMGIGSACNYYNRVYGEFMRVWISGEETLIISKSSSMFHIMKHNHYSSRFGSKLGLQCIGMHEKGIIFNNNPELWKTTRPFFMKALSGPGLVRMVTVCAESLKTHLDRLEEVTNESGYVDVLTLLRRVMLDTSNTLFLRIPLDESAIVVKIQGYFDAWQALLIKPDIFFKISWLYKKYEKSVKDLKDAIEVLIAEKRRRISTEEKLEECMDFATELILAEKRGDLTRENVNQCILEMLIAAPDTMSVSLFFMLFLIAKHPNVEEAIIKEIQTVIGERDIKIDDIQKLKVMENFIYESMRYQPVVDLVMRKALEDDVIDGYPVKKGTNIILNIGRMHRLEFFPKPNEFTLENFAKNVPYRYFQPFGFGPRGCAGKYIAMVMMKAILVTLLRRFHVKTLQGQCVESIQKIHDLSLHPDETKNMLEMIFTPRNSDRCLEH
In words: Aromatase activity assay, modified tritiated water assay in JEG-3 cells. Format: cell-based. To be noted: 1 h incubation, triplicate. The protocol: Seven compounds including the two carbamate side products were investigated for their aromatase inhibitory activity at 10 nM using the previously reported modified tritiated water assay.[20]
(§1) JEG-3 cells (ATCC) were cultured in Eagle's minimal essential medium (EMEM) supplemented with 10% fetal calf serum (FCS). The cells were maintained at 37 °C in a humidified incubator with 5% CO2. Then, the cells were cultured to approximately 80% confluence before any treatments were applied.
The aromatase activity was measured using a modified tritiated water assay. The JEG-3 cells were cultured in six-well plates in EMEM until reaching 80% confluence. The substrate androst-4-ene-3,17-dione [1β-^3H] was added to each well in a serum-free medium. In the presence and absence of dual inhibitors (at concentrations ranging from 0.001 to 10 nM), the cells were incubated at 37 °C for 1 hour. The reaction was stopped by placing the plates on ice for 5 minutes. The medium (500 μL) was obtained, vortexed with 2% dextran-treated charcoal in PBS, and centrifuged at 4000 rpm. [^3H]H2O in the supernatant was quantified using scintillation counting. The aromatase activity was normalized to protein concentration, determined by the Pierce BCA assay kit (Thermo Fisher Scientific), and expressed as pmol of product per mg of protein per hour.

The target in a further assay is T2, steroid sulfatase (STS) (Homo sapiens, UniProt P08842).
T2 construct: lysates from JEG-3 cells, known to have high endogenous STS activity; host or cells: JEG-3 cell lysate (supernatant after centrifugation)
T2 sequence (P08842 22-583): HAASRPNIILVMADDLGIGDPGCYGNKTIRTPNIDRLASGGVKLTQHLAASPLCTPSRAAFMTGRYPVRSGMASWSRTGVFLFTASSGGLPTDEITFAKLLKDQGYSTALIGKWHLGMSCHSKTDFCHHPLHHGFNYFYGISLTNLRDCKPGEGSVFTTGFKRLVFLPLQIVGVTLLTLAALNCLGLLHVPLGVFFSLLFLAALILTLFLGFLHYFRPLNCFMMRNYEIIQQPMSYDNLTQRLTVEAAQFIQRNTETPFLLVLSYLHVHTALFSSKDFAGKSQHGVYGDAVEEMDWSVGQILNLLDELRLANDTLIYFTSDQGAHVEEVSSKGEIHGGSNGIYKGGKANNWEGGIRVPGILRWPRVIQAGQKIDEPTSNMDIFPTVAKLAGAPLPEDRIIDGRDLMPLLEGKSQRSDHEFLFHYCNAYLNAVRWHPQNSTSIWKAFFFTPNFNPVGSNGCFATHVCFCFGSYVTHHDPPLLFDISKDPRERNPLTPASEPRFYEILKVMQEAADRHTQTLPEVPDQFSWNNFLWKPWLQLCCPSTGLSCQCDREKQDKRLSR
The experiment in a line: Steroid sulfatase activity assay, cell-free JEG-3 lysate, [3H]oestrone sulfate substrate. Format: biochemical. To be noted: for IC50: 20 μM E1S, 37 °C, 1 h, triplicate. As for the experimental part: as §1
STS activity was measured using an in vitro, cell-free assay. Briefly, lysates from JEG-3 cells, known to have high endogenous STS activity, were prepared by lysing the cells with a buffer (50 mM Tris-HCl, pH 7.4, and 1 mM EDTA). After centrifugation, the supernatant was collected and protein concentrations were determined using a BCA assay kit.
For the steroid sulfatase assay, 125 μg of JEG-3 lysate was incubated with the substrate [^3H]oestrone sulfate (E1S, 4 × 10^5 dpm) diluted to a final concentration of 20 μM using non-radioactive E1S. The mixture was incubated in the presence of different concentrations of inhibitors (ranging from 10^−11 M to 10^−5 M) at 37 °C for 1 hour. After incubation, the reaction was stopped by placing the tubes on ice, and the estrone product formed was separated from the substrate by extraction with toluene. [^14C]oestrone was added to the organic phase as an internal standard to monitor recovery and procedural losses.
The organic phase was subjected to liquid scintillation counting to measure both ^3H and ^14C. The amount of E1S hydrolysed was calculated from the ^3H counts, corrected for recovery using the ^14C standard, and converted into molar concentrations of hydrolysed product. The inhibitory activity of test compounds was expressed as the IC50 value, representing the concentration required to inhibit 50% of the STS activity.

[1] abbreviates: JEG-3 cells, read-out: Arom IC50.

`COc1ccc(C(=O)c2oc3cc(OS(N)(=O)=O)ccc3c2C)cc1` [19e, 2-(4-Methoxybenzoyl)-3-methylbenzofuran-6-yl sulfamate]: the IC50 at aromatase (CYP19A1) (setting [1]) amounted to 35 nM; at steroid sulfatase (STS) it was 164 nM. Regarding `Cc1c(C(=O)c2ccc(Cl)cc2)oc2cc(OS(N)(=O)=O)ccc12` [19b, 2-(4-Chlorobenzoyl)-3-methylbenzofuran-6-yl sulfamate], the IC50 at aromatase (CYP19A1) (setting [1]) was 137 nM; at steroid sulfatase (STS), 48 nM. Turning to `NS(=O)(=O)Oc1ccc2cc(C(c3ccc(Cl)cc3)n3cncn3)oc2c1` (stereo not drawn) [compound 6, 2-((4-Chlorophenyl)(1H-1,2,4-triazol-1-yl)methyl)benzofuran-6-yl sulfamate], at aromatase (CYP19A1) (setting [1]), the IC50 stood at 1.4 nM. In addition, the “STS inhibitory activity (in words)” value at steroid sulfatase (STS) is on record as “neither the triazole sulfamates (6, 7, 8a, 9, 10a) nor the triazole carbamates (8b, 10b) displayed STS inhibitory activity”.

Consider `COc1ccc(C(=O)c2cc3ccc(OS(N)(=O)=O)cc3o2)cc1` [18e, 2-(4-Methoxybenzoyl)benzofuran-6-yl sulfamate], for which the IC50 on aromatase (CYP19A1) (setting [1]) is greater than 1000 nM; against steroid sulfatase (STS), 115 nM. Regarding `N#Cc1ccc(C(c2cc3ccc(OC(N)=O)cc3o2)n2cncn2)cc1` (stereo not drawn) [10b, 2-((4-Cyanophenyl)(1H-1,2,4-triazol-1-yl)methyl)benzofuran-6-yl carbamate], at aromatase (CYP19A1) (Arom IC50, JEG-3 cells), the IC50 is 0.65 nM. Moreover, the “STS inhibitory activity (in words)” value on steroid sulfatase (STS) was “neither the triazole sulfamates (6, 7, 8a, 9, 10a) nor the triazole carbamates (8b, 10b) displayed STS inhibitory activity”.

In the case of `Cc1c(C(=O)c2ccc(F)cc2)oc2cc(OS(N)(=O)=O)ccc12` [19a, 2-(4-Fluorobenzoyl)-3-methylbenzofuran-6-yl sulfamate], the IC50 on aromatase (CYP19A1) (setting [1]) came to 50 nM; against steroid sulfatase (STS), 654 nM. Take `NS(=O)(=O)Oc1ccc2oc(C(c3ccc(Cl)cc3)n3cncn3)cc2c1` (stereo not drawn) [compound 7, 2-((4-Chlorophenyl)(1H-1,2,4-triazol-1-yl)methyl)benzofuran-5-yl sulfamate]: the IC50 at aromatase (CYP19A1) (setting [1]) amounted to 5.49 nM. Moreover, the “STS inhibitory activity (in words)” value on steroid sulfatase (STS) is given as “neither the triazole sulfamates (6, 7, 8a, 9, 10a) nor the triazole carbamates (8b, 10b) displayed STS inhibitory activity”.

Consider `Cc1c(C(=O)c2ccc(Cl)cc2)oc2cc(OC(N)=O)ccc12` [compound 21, 2-(4-Chlorobenzoyl)-3-methylbenzofuran-6-yl carbamate], for which the IC50 on aromatase (CYP19A1) (setting [1]) was no less than 1000 nM; against steroid sulfatase (STS) it was ≥ 1000 nM and 980 nM.

As to `Cc1c(C(=O)c2ccc(Cl)cc2Cl)oc2cc(OS(N)(=O)=O)ccc12` [19d, 2-(2,4-Dichlorobenzoyl)-3-methylbenzofuran-6-yl sulfamate], the IC50 is 20 nM at aromatase (CYP19A1) (setting [1]) and 1500 nM against steroid sulfatase (STS).

Regarding `NC(=O)Oc1ccc2cc(C(=O)c3ccc(Cl)cc3)oc2c1` [compound 20, 2-(4-Chlorobenzoyl)benzofuran-6-yl carbamate], the IC50 is no less than 1000 nM on aromatase (CYP19A1) (setting [1]); ≥ 1000 nM and 1220 nM against steroid sulfatase (STS). Molecule `NC(=O)Oc1ccc(C(c2cc3cc(Cl)ccc3o2)n2cncn2)cc1` (stereo not drawn) [8b] returned an IC50 at aromatase (CYP19A1) (Arom IC50, JEG-3 cells) of 4.1 nM. Further, the “STS inhibitory activity (in words)” value on steroid sulfatase (STS) is recorded as “neither the triazole sulfamates (6, 7, 8a, 9, 10a) nor the triazole carbamates (8b, 10b) displayed STS inhibitory activity”. As for `NS(=O)(=O)Oc1ccc2cc(C(=O)c3ccc(Cl)cc3Cl)oc2c1` [18d, 2-(2,4-Dichlorobenzoyl)benzofuran-6-yl sulfamate], the IC50 on aromatase (CYP19A1) (setting [1]) was greater than 1000 nM; against steroid sulfatase (STS), 310 nM. Turning to `NS(=O)(=O)Oc1ccc2cc(C(c3ccc(F)cc3)n3cncn3)oc2c1` (stereo not drawn) [compound 9, 2-((4-Fluorophenyl)(1H-1,2,4-triazol-1-yl)methyl)benzofuran-6-yl sulfamate], at aromatase (CYP19A1) (setting [1]), the IC50 amounted to 8.4 nM. Besides, on steroid sulfatase (STS), the “STS inhibitory activity (in words)” value is “neither the triazole sulfamates (6, 7, 8a, 9, 10a) nor the triazole carbamates (8b, 10b) displayed STS inhibitory activity”.

`NS(=O)(=O)Oc1ccc2c3c(c(=O)oc2c1)CCCCC3` [STX64, Irosustat, reference compound]: on aromatase (CYP19A1) (setting [1]), the IC50 is greater than 1000 nM. Consider `N#Cc1ccc(C(=O)c2cc3ccc(OS(N)(=O)=O)cc3o2)cc1` [18f, 2-(4-Cyanobenzoyl)benzofuran-6-yl sulfamate], for which the IC50 on aromatase (CYP19A1) (setting [1]) is greater than 1000 nM; on steroid sulfatase (STS), 280 nM. With `N#Cc1ccc(C(c2cc3ccc(OS(N)(=O)=O)cc3o2)n2cncn2)cc1` (stereo not drawn) [10a, 2-((4-Cyanophenyl)(1H-1,2,4-triazol-1-yl)methyl)benzofuran-6-yl sulfamate], the IC50 at aromatase (CYP19A1) (setting [1]) worked out at 1.52 nM. In addition, the “STS inhibitory activity (in words)” value on steroid sulfatase (STS) was “neither the triazole sulfamates (6, 7, 8a, 9, 10a) nor the triazole carbamates (8b, 10b) displayed STS inhibitory activity”. For `NS(=O)(=O)Oc1ccc2cc(C(=O)c3ccc(Cl)cc3)oc2c1` [18b, 2-(4-Chlorobenzoyl)benzofuran-6-yl sulfamate], the IC50 on aromatase (CYP19A1) (setting [1]) was greater than 1000 nM; at steroid sulfatase (STS) it was 410 nM. As for `NS(=O)(=O)Oc1ccc(C(c2cc3cc(Cl)ccc3o2)n2cncn2)cc1` (stereo not drawn) [8a, 4-((5-Chlorobenzofuran-2-yl)(1H-1,2,4-triazol-1-yl)methyl)phenyl sulfamate], the IC50 at aromatase (CYP19A1) (setting [1]) was greater than 10 nM. Further, the “STS inhibitory activity (in words)” value at steroid sulfatase (STS) is given as “neither the triazole sulfamates (6, 7, 8a, 9, 10a) nor the triazole carbamates (8b, 10b) displayed STS inhibitory activity”. Consider `NS(=O)(=O)Oc1ccc2cc(C(=O)c3ccc(F)cc3)oc2c1` [18a, 2-(4-Fluorobenzoyl)benzofuran-6-yl sulfamate], for which the figures for the IC50 at aromatase (CYP19A1) (setting [1]) and against steroid sulfatase (STS) were greater than 1000 nM and 740 nM, respectively. For `Cc1c(C(=O)c2ccc(Br)cc2)oc2cc(OS(N)(=O)=O)ccc12` [19c, 2-(4-Bromobenzoyl)-3-methylbenzofuran-6-yl sulfamate], in that order: 22 nM and 830 nM. As to `N#Cc1ccc(C(c2ccc(C#N)cc2)n2cncn2)cc1` [Letrozole, reference compound], the IC50 at steroid sulfatase (STS) was greater than 1000 nM. Turning to `NS(=O)(=O)Oc1ccc2cc(C(=O)c3ccc(Br)cc3)oc2c1` [18c, 2-(4-Bromobenzoyl)benzofuran-6-yl sulfamate], the IC50 was greater than 1000 nM at aromatase (CYP19A1) (setting [1]) and 510 nM against steroid sulfatase (STS).

The term IC50 denotes the concentration that gives 50% inhibition.
